# Test system: corn leaf
# Assay: Dark induced senescence of corn leaf (leaf discs, image analysis)
# Assay type: in vivo, corn (variety Multitop)
# Conditions: 100 μM-0.0001 μM, 23° C., up to 8 days, 12 replicates, read-out: IC50 for dark induced senescence of corn leaf (concentration at which 50% senescence was achieved)
# Method: It is known that strigolactones regulate (accelerate) leaf senescence, potentially through D14 receptor signaling. Compounds of the present invention (IA) were compared to structurally-related compounds (P) in a corn leaf dark induced senescence assay. Corn plants of variety Multitop were grown in a greenhouse with relative 75% humidity and at 23-25° C. for 6 weeks. 1.4 cm diameter leaf discs were placed into 24-well plates containing a test compounds in a concentration gradient (100 μM-0.0001 μM) at a final concentration of 0.5% DMSO. Each concentration was tested in 12 replicates. Plates were sealed with seal foil. The foil was pierced to provide gas exchange in each well. The plates were placed into the completely dark climatic chamber. Plates were incubated in the chamber with 75% humidity and at 23° C. for 8 days. On days 0, 5, 6, 7 and 8 photographs were taken of each plates, and image analysis conducted with a macro developed using the ImageJ software. The image analysis was used to determine the concentration at which 50% senescence was achieved (IC50), see Table 3. The lower the value, the higher senescence induction potency.
row,SMILES,IC50 [µM]
1,CC1=CC(OC=C2C(=O)N(CC#N)C3c4ccccc4CC23)OC1=O (stereo not drawn) [Compound P1],0.11
2,CC1=CC(OC=C2C(=O)N(CC#N)C3c4ccccc4CC23)OC1=O (stereo not drawn) [Compound P2],9.7
3,CC1=CC(OC=C2C(=O)N(CC#N)C3c4ccccc4CC23)OC1=O (stereo not drawn) [Compound P3],7.2
4,CC1=CC(OC=C2C(=O)N(CC#N)C3c4ccccc4CC23)OC1=O (stereo not drawn) [Compound P4],2.47
5,CC1=CC(OC=C2C(=O)N(CC#N)C3c4ccccc4CC23)OC1=O (stereo not drawn) [Compound P6-Z],0.074

# Same assay, conditions: Zea mays, foliar, 192 h, 100 μM-0.0001 μM, 23° C., up to 8 days, 12 replicates, read-out: IC50 for dark induced senescence of corn leaf (concentration at which 50% senescence was achieved)
row,SMILES,IC50 [µM]
1,"CC(=O)N1C(=O)/C(=C/OC2OC(=O)C(C)=C2C)C2Cc3ccccc3C21 (stereo not drawn) [IA-1, (3E)-1-acetyl-3-[(3,4-dimethyl-5-oxo-2H-furan-2-yl)oxymethylene]-4,8b-dihydro-3aH-indeno[1,2-b]pyrrol-2-one]",0.03
2,"CC1=C(C)C(O/C=C2/C(=O)N(c3ccccc3)C3c4ccccc4CC23)OC1=O (stereo not drawn) [IA-8, (3E)-3-[(3,4-dimethyl-5-oxo-2H-furan-2-yl)oxymethylene]-1-phenyl-4,8b-dihydro-3aH-indeno[1,2-b]pyrrol-2-one]",0.17
3,CC1=C(C)C(O/C=C2/C(=O)N(CC#N)C3c4ccccc4CC23)OC1=O (stereo not drawn) [IA-10-E],0.155
4,"CC1=C(C)C(O/C=C2\C(=O)N(CC#N)C3c4ccccc4CC23)OC1=O (stereo not drawn) [IA-10-Z, 2-[(3Z)-3-[(3,4-dimethyl-5-oxo-2H-furan-2-yl)oxymethylene]-2-oxo-4,8b-dihydro-3aH-indeno[1,2-b]pyrrol-1-yl]acetonitrile]",0.07

# — patent US20210253560A1, “PLANT GROWTH REGULATING COMPOUNDS” (SYNGENTA PARTICIPATIONS AG, priority 2018, published 2021)
